From patent US20170095432A1, “TREPROSTINIL FORMULATIONS” (United Therapeutics Corporation, priority 2014, published 2017)

Legend:
Format in all cases: physicochemical
[1] = Complexation of treprostinil with cholestyramine ion-exchange resins (PUROLITE, DUOLITE); unbound drug assayed by UV at 270 nm
Method: (§1) A UV absorbance measurement was conducted with an approximate 0.1 mg/mL treprostinil diolamine solution with a Fluostar Omega BMG Labtech UV spectrophotometer from 220 nm to 350 nm to determine the λmax. Two standard curves were established with known concentrations of treprostinil at 228 nm and 270 nm. The time to achieve equilibrium between bound and unbound treprostinil to the IER was determined. One gram of resin was added to 100 mL of 10 mg/mL treprostinil solution. The suspension was stirred for four hours and 1 -mL samples were taken at 30, 60, 90, 120, 180, and 240 minutes. Each sample was filtered through a 0.45-μm PTFE filter, and the resulting solution was assayed by UV spectrophotometry for treprostinil concentration. Complexation experiments were conducted with known concentrations of treprostinil and one gram of resin at ratios of 1:0.5, 1:1, 1:2, and 1:4, resin:treprostinil (w/w). Two resins, PUROLITE™ and DUOLITE™, were evaluated separately. The amount of treprostinil complexed per gram of resin was calculated based on the difference between the initial and final treprostinil concentration. The percent loading efficiency was calculated based on the equation: (1-[unbound treprostinil]/[initial treprostinil]) * 100. Photographs were taken for each resin before and after complexation with treprostinil using a Leica DM IL LED light microscope and Leica DMC2900 microscope camera.
FIGS. 1-6 present the results of experiments. […] FIGS. 2A and 2B show calibration curves for determining a concentration of unbound treprostinil (diethanolamine) based on treprostinil absorbance at 228 nm (2A) and 270 nm (2B). The 270 nm curve was used to calculate all the concentrations in the complexation experiments.

[2] = Binding of treprostinil diethanolamine to the 0.45-μm PTFE filters used in the assay
Method: as §1, with “Photographs were taken for each resin before and after complexation with treprostinil using a Leica DM IL LED light microscope and Leica DMC2900 microscope camera.” left out
(§2) Treprostinil diethanolamine was determined to be stable for 14 days at both ambient and refrigerated environments.

[3] = Stability of treprostinil diethanolamine at ambient and refrigerated environments; conditions: 14 days
Method: as §2

SMILES | loading efficiency (drug bound to the resin) ([1]; lower concentrations of treprostinil diethanolamine) | binding effect with PTFE filters [2] | stability ([3]; ambient environment) | stability ([3]; refrigerated environment) | maximum amount of treprostinil bound ([1]; plateau with increasing concentration of treprostinil diethanolamine, resin:treprostinil ratios 1:0.5 to 1:4 (w/w)) [g/g resin] | time to equilibrium between bound and unbound treprostinil to the resins ([1]; stirring, 1 g resin in 100 mL of 10 mg/mL treprostinil solution)
CCCCC[C@H](O)CC[C@@H]1[C@H]2Cc3cccc(OCC(=O)O)c3C[C@H]2C[C@H]1O.OCCNCCO [Treprostinil diethanolamine] | almost all drug was bound to the resin | no binding effect | stable | stable | – | –
CCCCC[C@H](O)CC[C@@H]1[C@H]2Cc3cccc(OCC(=O)O)c3C[C@H]2C[C@H]1O [treprostinil] | – | – | – | – | 1.6 | After one hour of stirring
